Tests used:
[1] = biological target: T1, neuronal nitric oxide synthase (Rattus norvegicus, UniProt P29476); experiment: Screen for neuronal nitric oxide synthase inhibiting activity (Screen A); assay type: biochemical
T1 construct: Enzyme was isolated from rat hippocampus or cerebellum; from tissue; host or cells: cerebellum or hippocampus of male Sprague-Dawley rat (20,000 g supernatant)
Procedure: (A) Screen for neuronal nitric oxide synthase inhibiting activity
Enzyme was isolated from rat hippocampus or cerebellum. The cerebellum or hippocampus of a male Sprague-Dawley rat (250-275 g) is removed following CO2 anaesthesia of the animal and decapitation. Cerebellar or hippocampal supernatant is prepared by homogenisation in 50 mM Tris-HCl with 1 mM EDTA buffer (pH 7.2 at 25° C.) and centifugation for 15 minutes at 20,000 g. Residual L-arginine is removed from the supernatant by chromatography through Dowex AG-50W-X8 sodium form and hydrogen form columns successively, and further centrifugation at 1000 g for 30 seconds.
For the assay, 25 μl of the final supernatant is added to each of 12 test tubes containing 25 μl L-arginine solution (of concentration 18 μM ^1 H-L-arginine, 96 nM ^3 H-L-arginine) and either 25 μl of an assay buffer (50 mM HEPES, 1 mM EDTA, 1.5 mM CaCl2, pH 7.4) or 25 μl of test compound in the buffer at 22° C. […]
(§1) Labelled L-citrulline is separated from labelled L-arginine by chromatography over a Dowex AG-50W-X8 200-400 mesh column. […] The L-citrulline is then quantified by scintillation counting. […]

[2] = biological target: T2, macrophage nitric oxide synthase (Mus musculus, UniProt P29477); experiment: Screen for macrophage nitric oxide synthase inhibiting activity (Screen B); assay type: biochemical, murine; conditions: ratio of IC50 in Screen B (macrophage isoform) to IC50 in Screen A (neuronal isoform)
T2 construct: Nitric oxide synthase is produced by cells in response to interferon-γ (IFNγ) and lipopolysaccharide (LPS); endogenous in cells; host or cells: J774A-1 murine macrophage cell line, induced with LPS and IFN-gamma (cell lysate)
Excerpt: The enzyme nitric oxide synthase has a number of isoforms and compounds of formula I, and pharmaceutically acceptable salts thereof, may be screened for nitric oxide synthase inhibiting activity by procedures based on those of Bredt and Snyder in Proc. Natl. Acad. Sci. (1990) 87, 682-685 and Forstermann et. al., Eur. J. Pharm. (1992) 225, 161-165 as follows. Nitric oxide synthase converts ^3 H-L-arginine to ^3 H-L-citrulline which can be separated by cation exchange chromatography and quantified by scintillation counting.
(B) Screen for macrophage nitric oxide synthase inhibiting activity
Enzyme is prepared, after induction, from the cultured murine macrophage cell line J774A-1 (obtained from laboratories of the Imperial Cancer Research Fund). J774A-1 cells are cultured in Dulbecco's Modified Eagles Medium (DMEM) supplemented with 10% foetal bovine serum, 4 mM L-glutamine and antibiotics (100 units/ml penicillin G, 100 μg/ml streptomycin & 0.25 μg/ml amphotericin B). Cells are routinely grown in […] flasks containing 35 ml medium kept at 37° C. and in a humidified atmosphere containing 5% CO2.
Nitric oxide synthase is produced by cells in response to interferon-γ (IFNγ) and lipopolysaccharide (LPS). […]
Labelled L-citrulline is separated from labelled L-arginine using Dowex AG-50W. […] After allowing the samples to dry the L-citrulline is quantified by scintillation counting. […]

[3] = biological target: T3, endothelial nitric oxide synthase (Homo sapiens, UniProt P29474); experiment: Screen for endothelial nitric oxide synthase inhibiting activity (Screen C); assay type: biochemical
T3 construct: Enzyme may be isolated from human umbilical vein endothelial cells (HUVECs); host or cells: HUVEC (CHAPS-solubilised particulate fraction)
T3 sequence (P29474 2-1203): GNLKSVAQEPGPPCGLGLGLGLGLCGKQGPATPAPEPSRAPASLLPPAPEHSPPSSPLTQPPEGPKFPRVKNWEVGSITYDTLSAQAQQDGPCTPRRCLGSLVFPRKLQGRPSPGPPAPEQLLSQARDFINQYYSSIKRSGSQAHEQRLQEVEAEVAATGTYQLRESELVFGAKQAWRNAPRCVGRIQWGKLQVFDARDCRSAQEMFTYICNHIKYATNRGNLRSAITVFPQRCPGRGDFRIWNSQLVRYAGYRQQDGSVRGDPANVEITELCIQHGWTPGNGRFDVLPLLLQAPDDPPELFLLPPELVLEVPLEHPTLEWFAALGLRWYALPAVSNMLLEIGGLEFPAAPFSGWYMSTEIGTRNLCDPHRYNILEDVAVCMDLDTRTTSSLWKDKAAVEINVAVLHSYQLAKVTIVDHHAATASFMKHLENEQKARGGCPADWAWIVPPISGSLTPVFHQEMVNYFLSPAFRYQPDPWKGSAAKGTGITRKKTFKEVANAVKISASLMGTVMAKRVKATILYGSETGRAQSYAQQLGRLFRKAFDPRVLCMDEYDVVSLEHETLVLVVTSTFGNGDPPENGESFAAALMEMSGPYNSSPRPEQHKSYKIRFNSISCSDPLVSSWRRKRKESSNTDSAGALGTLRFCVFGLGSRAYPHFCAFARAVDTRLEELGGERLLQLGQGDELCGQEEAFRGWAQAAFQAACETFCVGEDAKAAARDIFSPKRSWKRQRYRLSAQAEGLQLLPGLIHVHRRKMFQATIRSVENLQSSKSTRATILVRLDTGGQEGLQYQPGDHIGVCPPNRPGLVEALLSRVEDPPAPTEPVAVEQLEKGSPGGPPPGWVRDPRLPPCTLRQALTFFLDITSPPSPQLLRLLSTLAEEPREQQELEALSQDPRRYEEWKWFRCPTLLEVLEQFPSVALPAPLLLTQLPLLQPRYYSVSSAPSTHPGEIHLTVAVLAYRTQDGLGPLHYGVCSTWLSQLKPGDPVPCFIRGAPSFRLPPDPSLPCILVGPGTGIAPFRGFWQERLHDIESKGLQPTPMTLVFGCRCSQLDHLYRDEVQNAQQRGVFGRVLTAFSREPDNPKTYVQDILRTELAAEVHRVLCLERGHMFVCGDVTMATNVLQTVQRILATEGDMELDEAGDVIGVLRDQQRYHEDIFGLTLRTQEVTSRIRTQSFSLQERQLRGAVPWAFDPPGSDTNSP
Procedure: (C) Screen for endothelial nitric oxide synthase inhibiting activity
HUVECs were purchased from Clonetics Corp (San Diego, Calif., USA) and cultured to confluency. Cells can be maintained to passage 35-40 without significant loss of yield of nitric oxide synthase. When cells reach confluency, they are resuspended in Dulbecco's phosphate buffered saline, centrifuged at 800 rpm for 10 mins, the cell pellet homogenised in ice-cold 50 mM Tris-HCl, 1 mM EDTA, 10% glycerol, 1 mM phenylmethylsulphonylfluoride, 2 μM leupeptin at pH 4.2. Following centrifugation at 34,000 rpm for 60 mins, the pellet is solubilised in the homogenisation buffer which also contains 20 mM CHAPS. After a 30 min incubation on ice, the suspension is centrifuged at 34,000 rpm for 30 mins. The resulting supernatant is stored at -80° C. until use.
For the assay, 25 μl of the final supernatant is added to each of 12 test tubes containing 25 μl L-arginine solution (of concentration 12 μM ^1 H-L-arginine, 64 nM ^3 H-L-arginine) and either 25 μl of an assay buffer (50 mM HEPES, 1 mM EDTA, 1.5 mM CaCl2, pH 7.4) or 25 μl of test compound in the buffer at 22° C. […]
as §1

T1 sequence (P29476 whole entry): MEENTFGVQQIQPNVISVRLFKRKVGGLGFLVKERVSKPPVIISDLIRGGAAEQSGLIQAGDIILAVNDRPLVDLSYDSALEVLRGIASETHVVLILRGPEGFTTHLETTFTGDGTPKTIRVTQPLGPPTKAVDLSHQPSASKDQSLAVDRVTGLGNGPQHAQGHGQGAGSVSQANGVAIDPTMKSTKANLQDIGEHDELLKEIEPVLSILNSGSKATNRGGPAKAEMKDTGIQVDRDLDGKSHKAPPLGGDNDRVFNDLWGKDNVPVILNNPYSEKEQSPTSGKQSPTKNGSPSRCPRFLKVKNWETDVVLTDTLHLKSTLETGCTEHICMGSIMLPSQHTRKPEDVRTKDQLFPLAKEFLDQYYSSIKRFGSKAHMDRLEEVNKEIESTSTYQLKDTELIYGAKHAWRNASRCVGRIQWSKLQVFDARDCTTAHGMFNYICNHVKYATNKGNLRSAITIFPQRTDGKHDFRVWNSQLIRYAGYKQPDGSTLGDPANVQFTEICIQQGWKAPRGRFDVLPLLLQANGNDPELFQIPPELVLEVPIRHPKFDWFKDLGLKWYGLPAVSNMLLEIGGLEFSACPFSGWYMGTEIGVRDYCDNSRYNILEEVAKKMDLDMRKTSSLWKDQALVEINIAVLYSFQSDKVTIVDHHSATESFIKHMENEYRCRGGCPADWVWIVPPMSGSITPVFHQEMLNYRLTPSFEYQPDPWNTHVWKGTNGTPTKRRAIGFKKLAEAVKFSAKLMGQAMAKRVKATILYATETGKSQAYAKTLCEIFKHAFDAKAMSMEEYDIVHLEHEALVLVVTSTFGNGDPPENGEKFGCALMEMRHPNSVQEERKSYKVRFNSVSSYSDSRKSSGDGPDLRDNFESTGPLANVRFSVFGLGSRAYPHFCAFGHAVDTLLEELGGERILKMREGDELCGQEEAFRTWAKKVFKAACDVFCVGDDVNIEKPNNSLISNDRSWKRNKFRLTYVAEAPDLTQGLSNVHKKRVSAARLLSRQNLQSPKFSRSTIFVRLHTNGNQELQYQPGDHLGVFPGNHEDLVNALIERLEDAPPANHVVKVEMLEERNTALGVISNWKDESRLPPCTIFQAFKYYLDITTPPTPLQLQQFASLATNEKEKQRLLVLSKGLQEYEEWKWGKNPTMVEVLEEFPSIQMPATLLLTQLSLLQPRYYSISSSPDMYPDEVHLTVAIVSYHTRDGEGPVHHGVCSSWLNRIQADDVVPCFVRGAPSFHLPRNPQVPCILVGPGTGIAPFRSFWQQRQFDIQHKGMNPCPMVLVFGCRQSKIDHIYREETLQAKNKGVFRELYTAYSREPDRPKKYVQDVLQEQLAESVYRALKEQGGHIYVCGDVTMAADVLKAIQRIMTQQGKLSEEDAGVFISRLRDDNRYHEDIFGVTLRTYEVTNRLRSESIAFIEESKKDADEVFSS

## CCSC(=N)Nc1ccc(CCN(C)Cc2ccccc2)cc1 [Example 1, N-(4-(2-((Phenylmethyl)(methyl)amino)ethyl)phenyl)carbamimidothioic acid ethyl ester]
[1]; Screen A, neuronal isoform, rat hippocampus or cerebellum supernatant
  IC50: < 10 µM
[2]
  IC50 values more than 10 times that obtained in Screen A: more than 10 times
[3]; ratio of IC50 in Screen C (endothelial isoform) to IC50 in Screen A (neuronal isoform)
  IC50 values more than 10 times that obtained in Screen A: more than 10 times

## N=C(NCCC[C@H](N)C(=O)O)N[N+](=O)[O-] [N-nitro-L-arginine, reference compound]
[1]; reference standard at a concentration of 1 μM
  inhibition at 1 µM: 60%
[3]; reference standard at a concentration of 1 μM, HUVEC enzyme
  inhibition at 1 µM: 70 to 90%

From patent US5721247A, “Isothiourea derivatives useful in therapy” (priority 1994, dated 1998)
